Results: US20190086390A1, “INDIRECT ASSESSMENT OF INSULIN RELEASE IN A CELL” (Board of Supervisors of Louisiana State University and …, priority 2016, published 2019)
Entries after “also recorded” stand apart in the source; their conditions may differ.

Key:
832/13 cells [1] = test: Glucose-stimulated insulin secretion (GSIS) in 832/13 cells, insulin ELISA; format: cell-based, rat
Procedure: 832/13 cells were grown in 12-well plates and treated as indicated. Glucose-stimulated insulin secretion (GSIS) assays were performed as described previously (29). Insulin secretion by cell lines into the media was measured using either the High Range Rat Insulin ELISA kit (Mercodia, Uppsala, Sweden) or by rat islets using the insulin radioimmunoassay (Siemens, Malvern, Pa.) according to the company directions. In addition, cells were lysed using M-PER lysis reagent (Thermo Fisher Scientific) to quantify total intracellular protein content via BCA assay (Thermo Fisher Scientific). Insulin secretion data were normalized to total protein to account for any differences in cell number between treatment groups. Incorporation of tritiated thymidine into DNA as a cellular index of proliferation was carried out as described (45).

[2] = test system: islets isolated from ZDF rats; settings: islets from ZDF rats and clonal cells cultured in lipids; cited from earlier work
832/13 cells [3] = test: Oxygen consumption rate (Seahorse XF24); format: cell-based, rat; settings: 1 ng/ml IL-1β + 1 mM I-NMMA, 18 h
Procedure: Oxygen consumption rates (OCR) were measured using the XF^24 Extracellular Flux Analyzer (Seahorse Bioscience, Chicopee, Mass.). 832/13 cells were grown on cell culture plates for 2 days prior to OCR assays being run. Cells were treated with vehicle, 1 ng/ml IL-β, 1 mM I-NMMA, or both IL-1β (1 ng/ml) plus I-NMMA (1 mM) for 18 h prior to OCR being measured. The oxygen consumption rate was measured over a 2-h period. Data represent the calculated average area under the curve from six wells per treatment group over multiple independent experiments.

832/13 cells [4] = test: Nitrite accumulation in culture media, Griess assay; format: cell-based, rat; settings: 832/13 cells, 1 ng/ml IL-1β 18 h
Procedure: (§1) Nitrite in the cell culture media was measured as an index of NO production using the Griess assay kit (Promega, Madison, Wis.), whereas cellular reduction of the 3-(4,5-dimethylthiazol-2-yl)-5-(3-carboxymethoxyphenyl)-2-(4-sulfophe-nyl)-2H-tetrazohum, inner salt (MTS) dye was determined using the MTS 1 solution kit (Promega) according to the manufacturer's protocol.

CCL20 = CCL20 secretion into media of 832/13 cells, ELISA; format: cell-based, rat; settings: 1 ng/ml IL-1β + 1 mM I-NMMA, 6 h
Procedure: (§2) 832/13 cells were grown in 12-well plates and treated as indicated. RPMI was supplemented with 0.3% BSA, and media were collected at the indicated time points. In addition, the cells were lysed using M-PER lysis reagent (Thermo Fisher Scientific) to quantify total intracellular protein content. CCL2 and CCL20 secretion into the media was measured by CCL2 Quantikine ELISA kit (R & D Systems, Minneapolis, Minn.) and CCL20 DuoSet ELISA kit (R & D Systems) according to the manufacturer's protocol. ELISA data were normalized to total protein to account for any differences in cell number between treatment groups.

832/13 cells [5] = test: MTS dye reduction assay; format: cell-based, rat; settings: 1 ng/ml IL-1β + 1 mM I-NMMA, 18 h
Procedure: as §1

832/13 cells [6] = test: Nitric oxide by EPR spectroscopy with (MGD)2Fe2+ spin trap; format: cell-based, rat; settings: 1 ng/ml IL-1β 18 h
Procedure: The spin trap Af-methyl-d-glucamine dithiocarbamate-iron complex [(MGD)2-Fe^2+] was prepared fresh in each experiment by making stock solutions of 500 mM MGD and 100 mM Fe^2+ (from FeS04.7 H20) in ultrapure water under anaerobic conditions. A final concentration of 25 mM MGD and 5 mM Fe^2+ was introduced onto cells in culture using serum-free media with a 30-min incubation period. Supernatants were then collected for the measurements of the (MGD)2-iron-NO complex. All electron paramagnetic resonance (EPR) measurements were carried out in a quartz flat cell at room temperature. Samples were transferred directly into the flat cell, which was then placed into the cavity of a Bruker EMX Plus spectroscope. Typical instrumental conditions were as follows: 20 mW of microwave power, 5.0-G modulation amplitude, 1×10^5 gain, 0.163-s time constant, and 80-G scan range. Quantitation was carried out by measuring and comparing the first peak heights on the spectra.

CCL2 = CCL2 secretion into media of 832/13 cells, ELISA; format: cell-based, rat; settings: 1 ng/ml IL-1β + 1 mM I-NMMA, 6 h
Procedure: as §2

832/13 cells [7] = test: Live cell calcium imaging, glucose-induced calcium response (Calcium Green); format: cell-based, rat
Procedure: 832/13 cells were plated into six-well plates containing poly-d-lysine-coated coverslips (Neuvitro, Vancouver, Wash.). At 50% confluence, cells were treated for 18 h with one of four experimental groups: 1 ng/ml […] alone, 1 mM I-NMMA alone, IL-1β+ I-NMMA, or normal growth media. Immediately prior to imaging, cells were preloaded with Calcium Green 1 AM (CG, C3012; Life Technologies) by transferring coverslips to a solution of 10|×M CG in 20% Pluronic F127 in DMSO (Life Technologies) made up in carbogenated (95% 02-5% C02) normal Krebs. The recipe for normal Krebs solution was (in mM) 124 NaCl, 25 NaHC03, 2 glucose, 3 KC1, 2 CaCl2, 1.5 NaH2P04, and 1 MgS04-7H20, which corrected to pH 7.4 with HCl. After incubation in the CG solution for 30 min, coverslips were transferred to carbogenated normal Krebs at 29° C.
Coverslips were transferred to a recording chamber on a fixed stage Zeiss Axioskop2 microscope equipped with a Perkin Elmer Ultra-view/Yokogawa C10 spinning disk laser confocal illuminator. Cells were illuminated with the 488 nm laser; CG-calcium fluorescence signals were collected at 509 nm. Cells were visualized with a X40 water immersion objective. Images were collected with a Hammamatsu Ocra-ER charge-coupled device camera. The confocal system, including image collection, was controlled by Perkin-Elmer Improvision software.
Cells on coverslips were constantly perfused with normal Krebs solution at 29° C. at a rate of 3 ml/min. After 10 min, the perfusion solution was switched to one containing 12 mM glucose and proportionally less sodium chloride to maintain osmolality. The 12 mM glucose challenge was applied for 5 min, followed by a 5 min washout period. Images of CG-labeled cells were collected continuously during the challenge period at a rate of 20/min, with each frame taking 1 s. Images were collected as TIFF stacks and processed using Nikon Elements AR software. Individual cells in the field were designated as regions of interest (ROI), and their fluorescence signal over time was captured. Background fluorescence was subtracted from the fluorescence signal of individual ROIs. The relative changes in cytoplasmic calcium in the cells were expressed as changes in fluorescence [(AF/F) %], where F is the intensity of the baseline fluorescence signal before stimulation and AF is the difference between the peak fluorescence intensity and the baseline signal. Therefore, magnitude of response was normalized for each individual ROI.

[8] = pretreated 18 h with I-NMMA plus IL-1β, 12 mM glucose

SMILES	recovery of insulin secretion (832/13 cells [1]; IL-1β 18 h, 10 uM DMM during final 2 h)	insulin secretion [2]	IL-1β-induced decrease in oxygen consumption rate with NOS inhibitor (832/13 cells [3])	IL-1β-induced nitrite production in presence of inhibitor (832/13 cells [4])	IL-1β-induced CCL20 secretion with NOS inhibitor (CCL20)	IL-1β-induced decrease in MTS reduction with NOS inhibitor (832/13 cells [5])	IL-1β-induced nitric oxide production in presence of inhibitor (832/13 cells [6])	recovery of insulin secretion (832/13 cells [1]; IL-1β 1 ng/ml + I-NMMA 1 mM, 18 h)	IL-1β-induced synthesis and secretion of CCL2 with NOS inhibitor (CCL2)	IL-1β-reduced change in intracellular calcium with NOS inhibitor (832/13 cells [7]; 1 mM I-NMMA)	magnitude of the response (832/13 cells [7]; [8]) [%]	number of responsive cells (832/13 cells [7]; [8]) [%]	responders and response magnitude relative to control pretreatment (832/13 cells [7]; pretreated with I-NMMA alone)
COC(=O)CC(O)C(=O)OC (stereo not shown) [dimethyl malate, reference compound]	could be recovered; also recorded: enhanced insulin secretion	improves insulin secretion											
CNC(=N)NCCC[C@H](N)C(=O)O [I-NMMA, N^G-monomethyl-L-arginine, reference compound]			prevented	completely inhibited	not impacted	fully recovered	lack of IL-Iβ-mediated elevations in nitric oxide formation	almost complete recovery	not altered	completely prevented	30	89	differed neither in the number of responders nor in the magnitude of the responses
